In ChEMBL document CHEMBL1201862, “PubChem BioAssay data set” (2004):
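Compound exposure: 48 hours, 5 concentrations, 96-well plates. GI50 = concentration required for 50% inhibition of growth.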 Activity calls are given as the source filed them. Cut-off read from the data, not from the text of the source: active = GI50 up to about 1.1 µM and inactive = higher. Where a SMILES comes first, the peptide text is derived from it. The star is where a group is joined. Cbz = O=C(OCc1ccccc1)*; Boc = CC(C)(C)OC(=O)*; OSu = O=C1CCC(=O)N1O*; Bn = c1ccc(C*)cc1

What was measured:
Experiment in all cases: growth of human tumour cells (NCI), 48 h
SNB-75 = test system: SNB-75
UACC-62 = test system: UACC-62
MOLT-4 = test system: MOLT-4
OVCAR-5 = test system: OVCAR-5
786-0 = test system: 786-0
HOP-92 = test system: HOP-92
SW-620 = test system: SW-620
HCT-15 = test system: HCT-15
PC-3 = test system: PC-3
TK-10 = test system: TK-10
CCRF-CEM = test system: CCRF-CEM
NCI-H226 = test system: NCI-H226
MDA-MB-435 = test system: MDA-MB-435
K562 = test system: K562
BT-549 = test system: BT-549
SR = test system: SR
NCI-H522 = test system: NCI-H522
EKVX = test system: EKVX
MCF7 = test system: MCF7
OVCAR-8 = test system: OVCAR-8
Hs-578T = test system: Hs-578T
Malme-3M = test system: Malme-3M
SNB-19 = test system: SNB-19
OVCAR-4 = test system: OVCAR-4
ACHN = test system: ACHN
HCC 2998 = test system: HCC 2998
SK-MEL-2 = test system: SK-MEL-2
SF-539 = test system: SF-539
U-251 = test system: U-251
NCI/ADR-RES = test system: NCI/ADR-RES
HT-29 = test system: HT-29
NCI-H23 = test system: NCI-H23
A549 = test system: A549
NCI-H460 = test system: NCI-H460
LOX IMVI = test system: LOX IMVI
UO-31 = test system: UO-31
UACC-257 = test system: UACC-257
IGROV-1 = test system: IGROV-1
M14 = test system: M14
KM12 = test system: KM12
SN12C = test system: SN12C
SF-268 = test system: SF-268
MDA-N = test system: MDA-N
OVCAR-3 = test system: OVCAR-3
SF-295 = test system: SF-295
SK-MEL-5 = test system: SK-MEL-5
RPMI-8226 = test system: RPMI-8226
A498 = test system: A498
COLO 205 = test system: COLO 205
HCT-116 = test system: HCT-116
HL-60 = test system: HL-60
HOP-62 = test system: HOP-62
MDA-MB-231 = test system: MDA-MB-231
SK-MEL-28 = test system: SK-MEL-28
RXF 393 = test system: RXF 393
CAKI-1 = test system: CAKI-1
T47D = test system: T47D
DU-145 = test system: DU-145
SK-OV-3 = test system: SK-OV-3

## COc1cccc(-c2nc(-c3cnccn3)n(C/C=C/c3ccccc3)n2)c1
SNB-75
  GI50: 6.32 µM (inactive)
UACC-62
  GI50: > 10 µM (inactive)
MOLT-4
  GI50: > 10 µM (inactive)
OVCAR-5
  GI50: > 10 µM (inactive)
786-0
  GI50: > 10 µM (inactive)
HOP-92
  GI50: 1.86 µM (inactive)
SW-620
  GI50: > 10 µM (inactive)
HCT-15
  GI50: > 10 µM
PC-3
  GI50: > 10 µM (inactive)
TK-10
  GI50: > 10 µM (inactive)
CCRF-CEM
  GI50: > 10 µM (inactive)
NCI-H226
  GI50: > 10 µM (inactive)
MDA-MB-435
  GI50: > 10 µM (inactive)
K562
  GI50: > 10 µM (inactive)
BT-549
  GI50: > 10 µM (inactive)
SR
  GI50: > 10 µM (inactive)
NCI-H522
  GI50: > 10 µM (inactive)
EKVX
  GI50: > 10 µM (inactive)
MCF7
  GI50: > 10 µM (inactive)
OVCAR-8
  GI50: > 10 µM (inactive)
Hs-578T
  GI50: > 10 µM (inactive)
Malme-3M
  GI50: > 10 µM (inactive)
SNB-19
  GI50: > 10 µM (inactive)
OVCAR-4
  GI50: > 10 µM (inactive)
ACHN
  GI50: > 10 µM (inactive)
HCC 2998
  GI50: > 10 µM (inactive)
SK-MEL-2
  GI50: > 10 µM (inactive)
SF-539
  GI50: > 10 µM (inactive)
U-251
  GI50: > 10 µM (inactive)
NCI/ADR-RES
  GI50: > 10 µM (inactive)
HT-29
  GI50: > 10 µM (inactive)
NCI-H23
  GI50: > 10 µM (inactive)
A549
  GI50: > 10 µM (inactive)
NCI-H460
  GI50: > 10 µM (inactive)
LOX IMVI
  GI50: > 10 µM (inactive)
UO-31
  GI50: > 10 µM (inactive)
UACC-257
  GI50: > 10 µM (inactive)
IGROV-1
  GI50: > 10 µM (inactive)
M14
  GI50: > 10 µM (inactive)
KM12
  GI50: > 10 µM (inactive)
SN12C
  GI50: > 10 µM (inactive)
SF-268
  GI50: > 10 µM (inactive)
MDA-N
  GI50: > 10 µM (inactive)
OVCAR-3
  GI50: > 10 µM (inactive)
SF-295
  GI50: > 10 µM (inactive)

## CC(C)(C)OC(=O)NC(Cc1ccc(OCc2ccccc2)cc1)C(=O)NC(CCCCNC(=O)OCc1ccccc1)C(=O)ON1C(=O)CCC1=O (stereo not drawn) (Boc-Tyr(Bn)-Lys(Cbz)-OSu; configuration not given here)
SNB-75
  GI50: 21.8 µM (inactive)
UACC-62
  GI50: 18.2 µM (inactive)
MOLT-4
  GI50: 20 µM (inactive)
OVCAR-5
  GI50: 31.3 µM (inactive)
SK-MEL-5
  GI50: 22.4 µM (inactive)
RPMI-8226
  GI50: 20 µM (inactive)
A498
  GI50: 48.3 µM (inactive)
786-0
  GI50: 18.9 µM (inactive)
HOP-92
  GI50: > 10 µM (inactive)
COLO 205
  GI50: 27 µM (inactive)
SW-620
  GI50: 20.7 µM (inactive)
HCT-15
  GI50: 16.7 µM
PC-3
  GI50: 22.1 µM (inactive)
TK-10
  GI50: 29.6 µM (inactive)
NCI-H226
  GI50: 29.2 µM (inactive)
K562
  GI50: 27 µM (inactive)
BT-549
  GI50: 21.6 µM (inactive)
SR
  GI50: 25.4 µM (inactive)
EKVX
  GI50: 42.6 µM (inactive)
MCF7
  GI50: 19.8 µM (inactive)
OVCAR-8
  GI50: 20.8 µM (inactive)
Hs-578T
  GI50: 20.3 µM (inactive)
Malme-3M
  GI50: 23.1 µM (inactive)
SNB-19
  GI50: 16.7 µM (inactive)
ACHN
  GI50: 20.7 µM (inactive)
HCC 2998
  GI50: 16.5 µM (inactive)
SK-MEL-2
  GI50: 17.4 µM (inactive)
HCT-116
  GI50: 19.9 µM (inactive)
U-251
  GI50: 17 µM (inactive)
HT-29
  GI50: 23.5 µM (inactive)
HL-60
  GI50: 22 µM (inactive)
NCI-H23
  GI50: 17.8 µM (inactive)
A549
  GI50: 34.1 µM (inactive)
HOP-62
  GI50: 19.5 µM (inactive)
NCI-H460
  GI50: 21.7 µM (inactive)
UO-31
  GI50: 21.6 µM (inactive)
UACC-257
  GI50: 34.3 µM (inactive)
IGROV-1
  GI50: 16.8 µM (inactive)
M14
  GI50: 19.4 µM (inactive)
MDA-MB-231
  GI50: 22.3 µM (inactive)
KM12
  GI50: 23.9 µM (inactive)
SN12C
  GI50: 16.7 µM (inactive)
MDA-N
  GI50: 15.7 µM (inactive)
SK-MEL-28
  GI50: 15.8 µM (inactive)
RXF 393
  GI50: 16.9 µM (inactive)

## CC(C)(C)C(O)CC(O)(C(F)(F)F)C(F)(F)F (stereo not drawn)
SNB-75
  GI50: 56.9 µM (inactive)
UACC-62
  GI50: > 100 µM (inactive)
MOLT-4
  GI50: > 100 µM (inactive)
OVCAR-5
  GI50: > 100 µM (inactive)
SK-MEL-5
  GI50: > 100 µM (inactive)
RPMI-8226
  GI50: > 100 µM (inactive)
A498
  GI50: > 100 µM (inactive)
CAKI-1
  GI50: > 100 µM (inactive)
786-0
  GI50: > 100 µM (inactive)
HOP-92
  GI50: > 100 µM (inactive)
COLO 205
  GI50: > 100 µM (inactive)
T47D
  GI50: > 100 µM (inactive)
SW-620
  GI50: > 100 µM (inactive)
HCT-15
  GI50: > 100 µM
PC-3
  GI50: > 100 µM (inactive)
TK-10
  GI50: > 100 µM (inactive)
CCRF-CEM
  GI50: > 100 µM (inactive)
NCI-H226
  GI50: > 100 µM (inactive)
MDA-MB-435
  GI50: > 100 µM (inactive)
K562
  GI50: > 100 µM (inactive)
SR
  GI50: > 100 µM (inactive)
NCI-H522
  GI50: > 100 µM (inactive)
EKVX
  GI50: > 100 µM (inactive)
MCF7
  GI50: > 100 µM (inactive)
OVCAR-8
  GI50: > 100 µM (inactive)
Hs-578T
  GI50: > 100 µM (inactive)
Malme-3M
  GI50: > 100 µM (inactive)
SNB-19
  GI50: > 100 µM (inactive)
OVCAR-4
  GI50: > 100 µM (inactive)
ACHN
  GI50: > 100 µM (inactive)
HCC 2998
  GI50: > 100 µM (inactive)
SK-MEL-2
  GI50: > 100 µM (inactive)
HCT-116
  GI50: > 100 µM (inactive)
SF-539
  GI50: > 100 µM (inactive)
U-251
  GI50: > 100 µM (inactive)
NCI/ADR-RES
  GI50: > 100 µM (inactive)
DU-145
  GI50: > 100 µM (inactive)
HT-29
  GI50: > 100 µM (inactive)
HL-60
  GI50: > 100 µM (inactive)
NCI-H23
  GI50: > 100 µM (inactive)
A549
  GI50: > 100 µM (inactive)
HOP-62
  GI50: > 100 µM (inactive)
NCI-H460
  GI50: > 100 µM (inactive)
LOX IMVI
  GI50: > 100 µM (inactive)
UO-31
  GI50: > 100 µM (inactive)
UACC-257
  GI50: > 100 µM (inactive)
IGROV-1
  GI50: > 100 µM (inactive)
M14
  GI50: > 100 µM (inactive)
MDA-MB-231
  GI50: > 100 µM (inactive)
KM12
  GI50: > 100 µM (inactive)
SN12C
  GI50: > 100 µM (inactive)
SF-268
  GI50: > 100 µM (inactive)
MDA-N
  GI50: > 100 µM (inactive)
SK-MEL-28
  GI50: > 100 µM (inactive)
OVCAR-3
  GI50: > 100 µM (inactive)
RXF 393
  GI50: > 100 µM (inactive)
SK-OV-3
  GI50: > 100 µM (inactive)
SF-295
  GI50: > 100 µM (inactive)
